Source: ChEMBL document CHEMBL1201862, “PubChem BioAssay data set” (2004)
Calls of active or inactive are those of the source.

How the values were obtained:
[1] = biological target: T1, High affinity choline transporter 1 (Homo sapiens, UniProt Q9GZV3); assay: human choline transporter blockers, potency – cell-based, 5-point CRC, membrane potential dye, dose response (AID 504840); type: functional
T1 sequence (Q9GZV3 whole entry): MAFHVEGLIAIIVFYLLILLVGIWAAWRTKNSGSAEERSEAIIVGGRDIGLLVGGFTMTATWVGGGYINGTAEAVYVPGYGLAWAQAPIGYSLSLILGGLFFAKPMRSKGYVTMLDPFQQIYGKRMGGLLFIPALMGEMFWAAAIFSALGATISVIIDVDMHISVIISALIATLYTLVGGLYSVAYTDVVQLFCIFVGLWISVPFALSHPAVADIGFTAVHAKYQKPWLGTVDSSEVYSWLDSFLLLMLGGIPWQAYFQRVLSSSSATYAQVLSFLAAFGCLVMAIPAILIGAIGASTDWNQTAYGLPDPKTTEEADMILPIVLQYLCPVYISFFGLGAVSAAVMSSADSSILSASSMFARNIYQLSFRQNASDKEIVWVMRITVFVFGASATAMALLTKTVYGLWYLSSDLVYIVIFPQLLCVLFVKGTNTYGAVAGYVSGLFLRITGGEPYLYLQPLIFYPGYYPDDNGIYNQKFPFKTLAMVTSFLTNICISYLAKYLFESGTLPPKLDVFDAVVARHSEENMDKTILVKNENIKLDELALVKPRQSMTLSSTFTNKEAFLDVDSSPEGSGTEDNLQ

cells [2] = type: functional, cell-based
[3] = biological target: T2, Nuclear receptor subfamily 0 group B member 1 (Homo sapiens, UniProt P51843); type: functional, cell-based;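 also: HEK293T cells transfected with SF-1 and DAX-1 plus StAR promoter luciferase reporter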
T2 sequence (P51843 whole entry): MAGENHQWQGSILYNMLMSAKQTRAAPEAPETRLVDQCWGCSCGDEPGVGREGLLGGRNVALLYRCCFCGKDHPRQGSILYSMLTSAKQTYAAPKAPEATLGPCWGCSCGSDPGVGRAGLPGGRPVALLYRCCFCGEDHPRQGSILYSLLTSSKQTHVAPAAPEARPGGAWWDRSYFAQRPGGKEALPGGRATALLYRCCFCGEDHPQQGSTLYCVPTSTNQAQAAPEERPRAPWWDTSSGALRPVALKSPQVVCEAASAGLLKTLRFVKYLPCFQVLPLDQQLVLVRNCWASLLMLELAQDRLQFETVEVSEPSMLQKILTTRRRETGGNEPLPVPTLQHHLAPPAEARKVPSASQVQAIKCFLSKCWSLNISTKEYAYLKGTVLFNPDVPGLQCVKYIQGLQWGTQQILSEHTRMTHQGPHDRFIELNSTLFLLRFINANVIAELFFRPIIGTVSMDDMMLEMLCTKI

cells [4] = type: functional, cell-based; remark: listed apart in the source
cells [5] = type: functional, cell-based; remark: listed apart in the source
[6] = viability loss in HepG2 hepatoma cells – cell-based, ATP luminescence, cherry-pick, activator set 2, cytotoxicity control, dose response (AID 1053143); type: functional
[7] = biological target: T3, Mannose-6-phosphate isomerase (Homo sapiens, UniProt P34949); assay: MPI inhibition at elevated mannose 6-phosphate – biochemical, fluorescence intensity, high mannose 6-phosphate, primary screen (AID 1220)
T3 sequence (P34949 whole entry): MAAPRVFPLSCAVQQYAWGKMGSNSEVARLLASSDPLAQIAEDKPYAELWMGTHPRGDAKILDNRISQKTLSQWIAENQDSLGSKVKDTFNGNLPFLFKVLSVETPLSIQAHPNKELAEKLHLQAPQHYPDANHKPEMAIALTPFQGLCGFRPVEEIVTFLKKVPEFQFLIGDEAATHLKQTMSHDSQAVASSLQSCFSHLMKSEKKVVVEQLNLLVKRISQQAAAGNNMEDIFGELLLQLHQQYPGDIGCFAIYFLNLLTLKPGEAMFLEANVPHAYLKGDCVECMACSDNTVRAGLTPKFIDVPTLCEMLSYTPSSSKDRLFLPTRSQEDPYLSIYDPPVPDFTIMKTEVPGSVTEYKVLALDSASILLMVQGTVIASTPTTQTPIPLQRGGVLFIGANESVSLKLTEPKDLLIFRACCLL

[8] = biological target: T4, Replicative DNA helicase DnaB (Mycobacterium tuberculosis, UniProt P9WMR3); assay: DnaB intein splicing inhibitors, dose response, biochemical, cell-free fluorescence (AID 449749); type: functional
T4 sequence (P9WMR3 whole entry): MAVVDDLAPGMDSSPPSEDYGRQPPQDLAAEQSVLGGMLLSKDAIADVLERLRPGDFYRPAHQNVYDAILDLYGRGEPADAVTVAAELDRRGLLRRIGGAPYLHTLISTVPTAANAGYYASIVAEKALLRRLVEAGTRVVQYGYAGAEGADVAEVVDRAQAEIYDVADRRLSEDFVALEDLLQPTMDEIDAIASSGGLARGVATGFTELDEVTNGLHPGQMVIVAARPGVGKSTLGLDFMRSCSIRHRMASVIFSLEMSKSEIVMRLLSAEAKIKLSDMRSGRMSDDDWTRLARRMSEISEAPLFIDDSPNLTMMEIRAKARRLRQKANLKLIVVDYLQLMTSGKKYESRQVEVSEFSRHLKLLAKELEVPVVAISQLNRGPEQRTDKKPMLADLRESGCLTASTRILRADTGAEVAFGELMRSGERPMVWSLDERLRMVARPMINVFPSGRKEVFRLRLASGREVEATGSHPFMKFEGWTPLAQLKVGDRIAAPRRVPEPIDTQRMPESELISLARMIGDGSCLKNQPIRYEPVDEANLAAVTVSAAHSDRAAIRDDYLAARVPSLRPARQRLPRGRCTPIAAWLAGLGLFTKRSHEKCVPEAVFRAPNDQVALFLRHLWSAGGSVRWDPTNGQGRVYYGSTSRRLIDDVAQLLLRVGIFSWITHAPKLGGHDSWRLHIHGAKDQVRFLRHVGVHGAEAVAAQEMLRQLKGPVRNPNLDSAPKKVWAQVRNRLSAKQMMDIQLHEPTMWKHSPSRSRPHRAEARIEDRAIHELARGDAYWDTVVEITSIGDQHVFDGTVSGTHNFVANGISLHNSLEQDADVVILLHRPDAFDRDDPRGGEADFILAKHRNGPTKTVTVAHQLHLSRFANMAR

Protein RecA = biological target: T5, Protein RecA (Mycobacterium tuberculosis, UniProt P9WHJ3); assay: Fluorescence Cell-Free Homogeneous Dose Retest to Identify Inhibitors of RecA-Intein Splicing Activity. [Related pubchem assays (depositor defined):AID2097, AID2223, AID489010, AID492950]; type: functional
T5 sequence (P9WHJ3 whole entry): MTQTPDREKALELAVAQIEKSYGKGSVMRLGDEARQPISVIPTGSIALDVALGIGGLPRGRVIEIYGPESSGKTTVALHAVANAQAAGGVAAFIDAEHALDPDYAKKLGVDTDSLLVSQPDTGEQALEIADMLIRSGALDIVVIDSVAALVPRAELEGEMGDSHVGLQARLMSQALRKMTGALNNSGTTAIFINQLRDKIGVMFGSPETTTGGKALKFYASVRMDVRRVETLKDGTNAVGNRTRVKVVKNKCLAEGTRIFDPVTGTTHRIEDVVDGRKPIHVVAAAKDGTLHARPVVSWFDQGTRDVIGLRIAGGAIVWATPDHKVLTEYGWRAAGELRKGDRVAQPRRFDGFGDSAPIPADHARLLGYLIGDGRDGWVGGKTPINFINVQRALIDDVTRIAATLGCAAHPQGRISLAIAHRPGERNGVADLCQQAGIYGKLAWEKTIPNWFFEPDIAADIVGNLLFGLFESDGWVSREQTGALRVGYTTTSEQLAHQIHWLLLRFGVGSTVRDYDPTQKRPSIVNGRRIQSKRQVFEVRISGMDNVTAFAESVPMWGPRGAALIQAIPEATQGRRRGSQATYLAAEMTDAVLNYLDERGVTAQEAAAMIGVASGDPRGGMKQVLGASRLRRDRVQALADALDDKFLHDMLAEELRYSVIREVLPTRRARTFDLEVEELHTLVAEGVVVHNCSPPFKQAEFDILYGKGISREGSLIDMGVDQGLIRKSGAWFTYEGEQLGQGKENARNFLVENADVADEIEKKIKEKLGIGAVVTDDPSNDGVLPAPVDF

[9] = biological target: T6, Sentrin-specific protease 8 (Homo sapiens, UniProt Q96LD8); type: functional
T6 sequence (Q96LD8 whole entry): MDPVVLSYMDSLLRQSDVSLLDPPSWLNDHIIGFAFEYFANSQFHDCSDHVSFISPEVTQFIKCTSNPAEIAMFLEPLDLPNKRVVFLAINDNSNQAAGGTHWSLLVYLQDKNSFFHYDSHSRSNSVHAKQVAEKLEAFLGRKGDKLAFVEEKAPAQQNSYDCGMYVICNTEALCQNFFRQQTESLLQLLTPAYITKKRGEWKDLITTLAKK

[10] = biological target: T6, Sentrin-specific protease 8; type: functional; remark: listed apart in the source
Caspase-3 = biological target: T7, Caspase-3 (Homo sapiens, UniProt P42574); assay: Dose-response confirmation of uHTS inhibitor hits of Sentrin-Specific Protease 8 in a Caspase-3 Fluorescence assay.; type: functional
T7 sequence (P42574 whole entry): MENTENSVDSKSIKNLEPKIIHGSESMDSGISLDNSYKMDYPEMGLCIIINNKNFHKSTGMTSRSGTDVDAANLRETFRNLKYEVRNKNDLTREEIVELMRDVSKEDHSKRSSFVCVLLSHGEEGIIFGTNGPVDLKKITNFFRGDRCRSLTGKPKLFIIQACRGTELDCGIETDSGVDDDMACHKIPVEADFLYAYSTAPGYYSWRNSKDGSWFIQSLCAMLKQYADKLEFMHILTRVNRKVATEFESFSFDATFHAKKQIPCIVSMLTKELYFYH

[11] = HPDE-C7 pancreatic duct cell viability loss – fluorescence, HTS (AID 430); type: functional, cell-based; settings: Homo sapiens
[12] = viability loss of HPDE-C7K cells – cell-based, fluorescence, HTS, primary screen (AID 431); type: functional; settings: Homo sapiens
Galanin receptor type 3 = Galanin receptor type 3 (Homo sapiens, UniProt O60755); assay: Fluorescence-based cell-based primary high throughput dose response assay to identify antagonists of the Galanin Receptor 3 (GalR3).; type: functional
Sequence of Galanin receptor type 3 (O60755 whole entry): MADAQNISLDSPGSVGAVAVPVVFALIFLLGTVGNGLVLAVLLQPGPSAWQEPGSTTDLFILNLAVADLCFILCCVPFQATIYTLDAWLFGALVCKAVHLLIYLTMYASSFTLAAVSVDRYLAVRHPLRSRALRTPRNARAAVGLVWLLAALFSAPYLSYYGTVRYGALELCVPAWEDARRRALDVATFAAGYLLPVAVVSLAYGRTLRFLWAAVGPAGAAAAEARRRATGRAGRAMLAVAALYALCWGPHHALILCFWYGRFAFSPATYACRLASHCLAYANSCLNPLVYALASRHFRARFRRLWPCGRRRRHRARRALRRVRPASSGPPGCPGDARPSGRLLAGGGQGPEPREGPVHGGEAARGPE

cells [13] = type: functional, cell-based; settings: HEK-CNG
[14] = biological target: 1-phosphatidylinositol 4,5-bisphosphate phosphodiesterase gamma-1 (Homo sapiens, UniProt P19174); assay: Counterscreen for inhibitors of phospholipase C isozymes (PLC-B3): Fluorescence-based biochemical high throughput dose response assay to identify inhibitors of phospholipase C isozymes (PLC-gamma1).
Sequence of 1-phosphatidylinositol 4,5-bisphosphate phosphodiesterase gamma-1 (P19174 whole entry): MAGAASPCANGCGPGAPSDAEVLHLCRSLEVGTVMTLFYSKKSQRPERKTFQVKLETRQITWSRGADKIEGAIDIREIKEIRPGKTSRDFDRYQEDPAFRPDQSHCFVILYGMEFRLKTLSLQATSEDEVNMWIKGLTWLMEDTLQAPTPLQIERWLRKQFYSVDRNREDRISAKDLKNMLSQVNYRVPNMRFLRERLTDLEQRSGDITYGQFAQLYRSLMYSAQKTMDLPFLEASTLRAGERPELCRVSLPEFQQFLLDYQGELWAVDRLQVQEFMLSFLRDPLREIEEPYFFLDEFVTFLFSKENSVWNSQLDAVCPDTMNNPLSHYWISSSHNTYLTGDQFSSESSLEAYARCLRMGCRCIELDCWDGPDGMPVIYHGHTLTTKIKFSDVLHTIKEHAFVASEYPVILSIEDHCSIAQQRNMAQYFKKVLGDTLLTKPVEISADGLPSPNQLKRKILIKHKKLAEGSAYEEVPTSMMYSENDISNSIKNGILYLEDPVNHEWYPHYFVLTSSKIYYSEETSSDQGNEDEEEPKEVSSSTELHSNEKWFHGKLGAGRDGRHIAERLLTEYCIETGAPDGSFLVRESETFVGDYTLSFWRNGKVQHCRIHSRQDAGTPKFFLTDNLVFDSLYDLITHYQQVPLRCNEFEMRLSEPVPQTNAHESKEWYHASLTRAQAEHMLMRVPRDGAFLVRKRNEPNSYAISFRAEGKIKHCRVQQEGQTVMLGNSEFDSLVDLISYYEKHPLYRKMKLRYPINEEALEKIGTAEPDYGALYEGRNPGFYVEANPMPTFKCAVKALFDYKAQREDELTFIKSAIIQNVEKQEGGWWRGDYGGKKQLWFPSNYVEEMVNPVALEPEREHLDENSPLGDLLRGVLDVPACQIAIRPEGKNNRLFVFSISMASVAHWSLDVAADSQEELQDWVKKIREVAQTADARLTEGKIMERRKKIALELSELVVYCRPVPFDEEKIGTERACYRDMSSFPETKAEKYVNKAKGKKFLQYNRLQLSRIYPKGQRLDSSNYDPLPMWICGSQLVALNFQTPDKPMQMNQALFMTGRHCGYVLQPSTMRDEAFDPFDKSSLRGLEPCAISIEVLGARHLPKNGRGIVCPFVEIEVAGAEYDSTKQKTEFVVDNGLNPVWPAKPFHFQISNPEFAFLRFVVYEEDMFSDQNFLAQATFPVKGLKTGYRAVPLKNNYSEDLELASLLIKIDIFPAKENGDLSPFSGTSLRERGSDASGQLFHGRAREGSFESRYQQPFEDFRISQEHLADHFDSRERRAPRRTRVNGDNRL

[15] = biological target: 1-phosphatidylinositol 4,5-bisphosphate phosphodiesterase beta-3 (Homo sapiens, UniProt Q01970); assay: Fluorescence-based biochemical high throughput dose response assay to identify inhibitors of phospholipase C isozymes (PLC-B3).
Sequence of 1-phosphatidylinositol 4,5-bisphosphate phosphodiesterase beta-3 (Q01970 whole entry): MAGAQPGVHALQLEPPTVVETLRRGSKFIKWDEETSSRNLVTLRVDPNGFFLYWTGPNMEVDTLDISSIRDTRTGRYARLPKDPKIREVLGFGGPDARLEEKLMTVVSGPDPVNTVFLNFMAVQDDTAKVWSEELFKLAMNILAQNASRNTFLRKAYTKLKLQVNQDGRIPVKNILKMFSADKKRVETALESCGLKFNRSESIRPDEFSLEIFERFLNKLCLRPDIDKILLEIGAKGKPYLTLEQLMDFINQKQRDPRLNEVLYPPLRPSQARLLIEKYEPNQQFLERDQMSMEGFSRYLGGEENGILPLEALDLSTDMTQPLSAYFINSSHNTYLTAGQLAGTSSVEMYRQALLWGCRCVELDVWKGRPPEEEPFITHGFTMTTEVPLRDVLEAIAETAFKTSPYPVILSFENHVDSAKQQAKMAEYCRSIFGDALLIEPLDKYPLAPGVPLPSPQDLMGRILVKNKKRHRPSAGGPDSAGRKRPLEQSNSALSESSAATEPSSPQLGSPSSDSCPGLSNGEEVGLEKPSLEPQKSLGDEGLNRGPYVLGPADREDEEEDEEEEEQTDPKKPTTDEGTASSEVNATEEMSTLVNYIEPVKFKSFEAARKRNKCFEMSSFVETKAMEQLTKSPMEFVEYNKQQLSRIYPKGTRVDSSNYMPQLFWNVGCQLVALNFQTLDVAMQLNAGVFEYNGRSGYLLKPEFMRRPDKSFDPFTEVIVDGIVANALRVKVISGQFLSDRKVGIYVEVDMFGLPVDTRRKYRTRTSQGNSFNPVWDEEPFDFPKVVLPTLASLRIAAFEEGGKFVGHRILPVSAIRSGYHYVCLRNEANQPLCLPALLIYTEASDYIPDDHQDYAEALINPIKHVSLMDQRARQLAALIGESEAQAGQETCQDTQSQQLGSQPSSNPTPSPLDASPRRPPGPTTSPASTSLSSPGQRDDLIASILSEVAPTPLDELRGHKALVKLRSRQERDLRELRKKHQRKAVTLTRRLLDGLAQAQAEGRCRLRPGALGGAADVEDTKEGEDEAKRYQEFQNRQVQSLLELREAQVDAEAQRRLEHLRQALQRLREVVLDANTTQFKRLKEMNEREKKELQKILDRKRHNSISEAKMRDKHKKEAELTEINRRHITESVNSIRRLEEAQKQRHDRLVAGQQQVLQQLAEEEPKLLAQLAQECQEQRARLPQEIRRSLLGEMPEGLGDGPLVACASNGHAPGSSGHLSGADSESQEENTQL

Paired box protein Pax-8 = Paired box protein Pax-8 (Homo sapiens, UniProt Q06710); assay: PAX8 transcriptional activity inhibition in RMG-I – RMG-I cells, luciferase, cherry-pick, dose response (AID 687027); type: functional, cell-based;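 also: luciferase reporter driven by Pax8 target thyroperoxidase promoter measured by SteadyGlo luminescence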
Sequence of Paired box protein Pax-8 (Q06710 whole entry): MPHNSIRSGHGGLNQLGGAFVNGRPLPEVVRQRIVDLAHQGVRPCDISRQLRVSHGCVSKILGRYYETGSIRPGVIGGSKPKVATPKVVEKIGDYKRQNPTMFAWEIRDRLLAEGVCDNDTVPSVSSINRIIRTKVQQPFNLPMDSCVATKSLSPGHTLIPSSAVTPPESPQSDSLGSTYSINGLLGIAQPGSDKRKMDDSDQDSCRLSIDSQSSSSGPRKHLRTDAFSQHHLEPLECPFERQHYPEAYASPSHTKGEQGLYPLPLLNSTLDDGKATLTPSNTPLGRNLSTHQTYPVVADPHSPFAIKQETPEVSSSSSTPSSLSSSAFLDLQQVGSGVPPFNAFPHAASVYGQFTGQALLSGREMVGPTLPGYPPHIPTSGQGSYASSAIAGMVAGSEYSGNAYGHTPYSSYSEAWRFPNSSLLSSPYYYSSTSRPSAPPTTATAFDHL

[16] = general cell-killing toxicity readout – plate reader, dry powder samples, cytotoxicity control for PAX8 inhibitor project, dose response (AID 743021); type: functional, cell-based
[17] = biological target: Disintegrin and metalloproteinase domain-containing protein 17 (Homo sapiens, UniProt P78536); assay: exosite inhibitors of ADAM17, dose response, biochemical (AID 743260)
Sequence of Disintegrin and metalloproteinase domain-containing protein 17 (P78536 whole entry, the tested form may be a part): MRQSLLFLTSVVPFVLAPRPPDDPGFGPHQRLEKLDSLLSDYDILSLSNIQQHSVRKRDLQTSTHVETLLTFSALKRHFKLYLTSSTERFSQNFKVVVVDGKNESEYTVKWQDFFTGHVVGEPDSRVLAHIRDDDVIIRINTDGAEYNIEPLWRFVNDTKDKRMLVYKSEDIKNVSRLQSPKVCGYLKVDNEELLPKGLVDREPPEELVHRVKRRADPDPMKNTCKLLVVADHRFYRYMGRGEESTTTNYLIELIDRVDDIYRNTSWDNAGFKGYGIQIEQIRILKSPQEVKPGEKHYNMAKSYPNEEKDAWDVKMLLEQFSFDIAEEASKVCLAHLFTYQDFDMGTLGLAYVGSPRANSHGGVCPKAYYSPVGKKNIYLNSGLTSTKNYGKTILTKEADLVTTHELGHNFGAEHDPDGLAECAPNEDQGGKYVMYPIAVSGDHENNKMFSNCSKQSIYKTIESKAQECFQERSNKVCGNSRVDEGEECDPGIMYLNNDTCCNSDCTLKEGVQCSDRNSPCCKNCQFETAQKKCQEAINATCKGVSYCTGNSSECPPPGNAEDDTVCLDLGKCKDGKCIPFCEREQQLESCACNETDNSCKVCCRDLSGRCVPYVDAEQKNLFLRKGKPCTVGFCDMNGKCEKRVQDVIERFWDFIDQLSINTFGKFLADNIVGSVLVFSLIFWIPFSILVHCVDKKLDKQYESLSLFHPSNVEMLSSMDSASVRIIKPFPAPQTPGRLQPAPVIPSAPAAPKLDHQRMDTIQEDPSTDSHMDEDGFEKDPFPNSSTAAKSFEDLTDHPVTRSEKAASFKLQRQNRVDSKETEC

[18] = inhibition of ADAM10 peptide cleavage – biochemical, FRET peptide substrate, recombinant human ADAM10, selectivity assay for ADAM17 exosite inhibitor project, dose response (AID 743259);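 also: ADAM10 enzyme cleaving a FRET peptide substrate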
[19] = T. cruzi growth inhibition in host cells, dose response, cell-based, plate reader, dry powder, set 2 (AID 652275); type: functional
[20] = MITF Orthogonal Assay: SK-MEL-5 CTG Assay Measured in Cell-Based System Using Plate Reader - 2084-02_Inhibitor_Dose_DryPowder_Activity_Set7.; type: functional
[21] = MITF: Counter assay: A375 proliferation Measured in Cell-Based System Using Plate Reader - 2084-03_Inhibitor_Dose_DryPowder_Activity_Set8.; type: functional; settings: A-375
[22] = inhibitors of TRPM1-promoter reporter in SK-MEL-5 – cell-based, luciferase, dry powder, set 8, MITF inhibitor project, dose response (AID 624430); type: functional

COc1ccccc1Nc1nnc(SCC2CCCCO2)s1 (configuration not stated)
IC50 [1]: 4.17 µM (active)
IC50 (cells [2]): > 67.5 µM (inactive)
IC50 [3]: > 0.834 µM (active)

O=C(Nc1nnc(SCc2ccccc2F)s1)C1=COCCO1
IC50 (cells [2]): > 67.6 µM (inactive)
IC50 [3]: > 67.6 µM (inactive)

COc1ccc2nc(NC(=O)c3cccs3)sc2c1
EC50 (cells [4]): > 350 µM (not active)
EC50 (cells [5]): 7.18 µM (active)
AC50 [6]: 26 µM (active)

NC(=O)c1ccc(NC(=O)C#Cc2ccccc2)cc1
AC50 [6]: 26 µM (active)

CCOC(=O)c1nn(-c2ccccc2C)c(=O)c2c(N)scc12
IC50 [7]: > 50 µM (not active)
AC50 [8]: > 120 µM (inactive)
EC50 (Protein RecA): 11.4 µM (active)
IC50 [9]: 4.12 µM (active)
IC50 [10]: 17.3 µM (active)
IC50 (Caspase-3): 93.3 µM (inactive)

CCn1c2ccccc2c2cc(C3C(C#N)=C(N)Oc4[nH]nc(COC)c43)ccc21 (configuration not stated)
EC50 [11]: 7.03 µM (active)
EC50 [12]: 7.72 µM (active)
AC50 [8]: > 380 µM (inconclusive)
EC50 (Protein RecA): 2.7 µM (active)
IC50 (Galanin receptor type 3): > 29.9 µM (inactive)
EC50 (cells [13]): > 29.9 µM (inactive)

Fc1ccc(-c2cc(-c3cccs3)cc(-c3ccccc3)n2)cc1
IC50 [14]: > 123 µM (inactive)
IC50 [15]: > 123 µM (inactive)

COc1ccc(-c2cc(CNc3nc(NC(C)C)nc4cc(-c5ccccc5)sc34)on2)cc1
AC50 (Paired box protein Pax-8): 9.84 µM (active)
AC50 [16]: 18.8 µM (active)

CC(C)c1cccc(-c2csc(C(O)c3cccc(Cl)c3)n2)c1 (configuration not stated)
IC50 [17]: > 69.5 µM (inactive)
IC50 [18]: 42.8 µM (inactive)

COc1cccc(C(Nc2ccccc2)c2ccc3ccc(C)nc3c2O)c1 (configuration not stated)
IC50 [17]: > 69.2 µM (inactive)
IC50 [18]: 18.5 µM (inactive)

CC(C)N1CC2(CN(Cc3cccc(F)c3)C2)Oc2c(NC(=O)c3ccncc3)cccc2C1=O
AC50 [19]: 0.41 µM (active)

CC(C)N1CCN(C2=C(Nc3ccc(I)cc3)C(=O)c3ccccc3C2=O)CC1
AC50 [20]: 10.8 µM (active)
AC50 [21]: 33.9 µM (active)
AC50 [22]: 2.96 µM (active)

CC(C)N1CCN(C2=C(Nc3ccc(Cl)c(Cl)c3)C(=O)c3ccccc3C2=O)CC1
AC50 [20]: 8.71 µM (active)
AC50 [21]: 19.4 µM (active)
AC50 [22]: 3.21 µM (active)

CN(C)C(=O)c1cccc(-c2ccc([C@H]3[C@@H](CO)N4CCCCN(C(=O)C5CCC5)C[C@H]34)cc2)c1
AC50 [19]: 1.29 µM (active)
